One compound from article PMC10846223, “Substrate specificity and ecological significance of PstS homologs in phosphorus uptake in marine Synechococcus sp. WH8102” (Microbiology Spectrum, 2024) can be followed below.

What all share (test): biochemical
One assay deals with T1, PstS2 (Parasynechococcus marenigrum, UniProt Q7U3C5).
T1 construct: gene SYNW2507
T1 sequence (Q7U3C5 24-336): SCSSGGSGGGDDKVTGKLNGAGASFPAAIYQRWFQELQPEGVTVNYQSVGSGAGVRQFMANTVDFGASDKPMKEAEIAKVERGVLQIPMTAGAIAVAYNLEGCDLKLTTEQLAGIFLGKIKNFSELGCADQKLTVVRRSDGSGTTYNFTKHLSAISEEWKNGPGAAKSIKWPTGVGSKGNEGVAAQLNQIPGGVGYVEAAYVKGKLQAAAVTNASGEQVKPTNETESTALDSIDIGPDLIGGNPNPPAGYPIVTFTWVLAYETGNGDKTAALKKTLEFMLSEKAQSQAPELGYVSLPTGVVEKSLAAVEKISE

A further assay has as its target T2, PstS1b (Parasynechococcus marenigrum, UniProt Q7U592).
T2 construct: gene SYNW1815
T2 sequence (Q7U592 26-325): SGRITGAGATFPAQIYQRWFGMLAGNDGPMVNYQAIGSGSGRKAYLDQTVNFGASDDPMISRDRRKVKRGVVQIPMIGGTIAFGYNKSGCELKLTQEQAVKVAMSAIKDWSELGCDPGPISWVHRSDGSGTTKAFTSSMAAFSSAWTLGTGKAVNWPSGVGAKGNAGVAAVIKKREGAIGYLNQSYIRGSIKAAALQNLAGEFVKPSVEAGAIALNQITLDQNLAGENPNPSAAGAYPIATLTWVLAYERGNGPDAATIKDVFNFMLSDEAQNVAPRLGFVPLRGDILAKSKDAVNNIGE

The next assay concerns the target T3, PstS1a (Parasynechococcus marenigrum, UniProt Q7U7G6).
T3 construct: gene SYNW1018
T3 sequence (Q7U7G6 25-324): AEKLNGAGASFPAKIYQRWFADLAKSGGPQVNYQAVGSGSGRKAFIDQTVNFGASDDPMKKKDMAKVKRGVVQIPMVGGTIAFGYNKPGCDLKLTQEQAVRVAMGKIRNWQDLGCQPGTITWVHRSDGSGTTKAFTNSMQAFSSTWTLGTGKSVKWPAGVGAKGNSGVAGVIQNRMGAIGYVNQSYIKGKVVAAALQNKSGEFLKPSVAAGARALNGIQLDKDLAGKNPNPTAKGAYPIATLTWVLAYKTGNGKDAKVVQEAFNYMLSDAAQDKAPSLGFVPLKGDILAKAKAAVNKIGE

With `O=P(O)(O)O` [phosphate], the Kd on PstS2 was found to be 4.3 µM; on PstS1b, 440 nM; on PstS1a, 3.3 µM.

What is called Kd is the constant that tells how readily two partners part at equilibrium. A low value points to a tighter complex.
